Experimental findings from PMC8234143, “Synthesis and Antiviral Evaluation of Nucleoside Analogues Bearing One Pyrimidine Moiety and Two D-Ribofuranosyl Residues” (Molecules, 2021) are described below.

For data set [1], the system named is WI-38. Description: Cytotoxicity assay (Cytell Cell Imaging, DAPI/propidium iodide). In kind it is cell-based. To be noted: cytotoxic activity, normal human lung fibroblasts, read-out: IC50 Normal Cell Line WI-38.
Data set [2] concerns HuTu-80. The description is as above. In kind it is cell-based. Conditions: Homo sapiens, HuTu80; cytotoxic activity, duodenal adenocarcinoma; read-out: IC50 Cancer Cell Lines HuTu-80.
For data set [3], the system named is PC-3. The description is as above. The data set is classed as cell-based. To be noted: cytotoxic activity, human prostate adenocarcinoma, read-out: IC50 Cancer Cell Lines PC-3.
Data set [4] has as its system M-HeLa. Described as above. The data set is classed as cell-based. To be noted: cytotoxic activity, human cervix epitheloid carcinoma, read-out: IC50 Cancer Cell Lines M-HeLa.
Data set [5] relates to A/Puerto Rico/8/34 (H1N1) influenza virus. The experiment in a line: Antiviral (cytoprotection, MTT) assay against influenza virus in MDCK cells. Conditions: for SI: CC50/IC50 ratio, influenza H1N1 / MDCK; for IC50: Influenza A virus, H1N1, MDCK, 48 h. The data set is classed as cell-based.
Data set [6] has as its system Vero cells. To be noted: for CC50: Vero cells, MTT, concentration causing 50% cell death.
A short description of data set [7]: in vitro. Conditions: African green monkey, CC50, Vero cells, MTT; concentration causing 50% cell death.
The test system of data set [8] is Coxsackie B3 virus. Description: Antiviral (cytoprotection, MTT) assay against Coxsackie B3 virus in Vero cells. The data set is classed as cell-based, coxsackievirus B3. To be noted: for IC50: 50% inhibition of virus replication, Vero cells, 48 h; for SI: CC50/IC50 ratio, Coxsackie B3 / Vero.
A short description of data set [9]: in vitro. To be noted: dog.
The mark [10] stands for this setting: 50% inhibition of virus replication, MDCK cells, read-out: IC50.

Structures are written as SMILES. Like-named read-outs stand apart in the source and are kept apart here.

As for `O=c1[nH]cc(F)c(=O)[nH]1` [5-Fluorouracil, reference compound], the IC50 was found to be 82.5 ± 6.6 µM in data set [1], 65.2 ± 5.5 µM in data set [2], 10.3 ± 0.8 µM in data set [3] and 62 ± 4.9 µM in [4].

For the molecule `CC(=O)OCC1OC(n2cc(CCCCn3c(C)cc(=O)n(CCCCc4cn(C5OC(COC(C)=O)C(OC(C)=O)C5OC(C)=O)nn4)c3=O)nn2)C(OC(C)=O)C1OC(C)=O` (stereo not shown) [Compound 2f], the SI is 4 in [5] and 1 in data set [8]. In addition, the IC50 is 96.3 ± 12.4 µM in data set [5]; > 12.4 µM in data set [8]; 12.4 µM in data set [8] (Enterovirus B, B3, Vero); > 100 µM in data set [1]; > 100 µM in [2]; > 100 µM in data set [3]. Moreover, in data set [4], the IC50 worked out at 88.1 ± 7.4 µM. In addition, the “antiviral activity against influenza virus A H1N1 (in words)” value in data set [5] (MDCK cells) was “inactive”. Moreover, the CC50 in data set [6] is 17.7 ± 0.6 µM; in [7], 18 µM; in [9], > 338 µM.

As for `Cc1cc(=O)n(CCCCc2cn(C3OC(CO)C(O)C3O)nn2)c(=O)n1CCCCc1cn(C2OC(CO)C(O)C2O)nn1` (stereo not shown) [Compound 2i], the figures for the SI in [5] and in data set [8] were 8 and 1, respectively. The IC50 in [5] (setting [10]) is 57.5 ± 7.1 µM; in data set [8] (Enterovirus B, B3, Vero), > 471 µM; in data set [1] it was > 100 µM; in data set [2], > 100 µM; in data set [3], > 100 µM; in data set [4], 100 ± 8.5 µM. In addition, the “cytotoxicity against the Vero cell line (in words)” value in data set [6] is “not cytotoxic”. Also, the CC50 in data set [7] and in [9] was > 471 µM in each case.

With `CC(=O)OCC1OC(n2cc(CCCCn3c(=O)c4nc5ccccc5nc4n(CCCCc4cn(C5OC(COC(C)=O)C(OC(C)=O)C5OC(C)=O)nn4)c3=O)nn2)C(OC(C)=O)C1OC(C)=O` (stereo not shown) [Compound 5f], the values for the SI in data set [5] and in [8] were 3 and 2, respectively. For the same molecule, the IC50 in data set [5] (setting [10]) is 91.6 ± 10.8 µM; in [8], > 11.3 µM; in data set [8] (Enterovirus B, B3, Vero), 11.3 µM; in data set [1], > 100 µM; in data set [2], > 100 µM; in data set [3], 66.8 ± 5.3 µM. The IC50 in data set [4] was 71.4 ± 6.3 µM. For the same molecule, the “antiviral activity against influenza virus A H1N1 (in words)” value in data set [5] (MDCK cells) is “inactive”. In addition, the CC50 was 17.8 ± 1.1 µM in [6], 18 µM in [7] and > 308 µM in data set [9].

Consider `O=c1c2nc3ccccc3nc2n(CCCCc2cn(C3OC(CO)C(O)C3O)nn2)c(=O)n1CCCCc1cn(C2OC(CO)C(O)C2O)nn1` (stereo not shown) [Compound 5i], for which the SI in data set [5] is listed as 17; in data set [8] it was 1. The IC50 was 24.3 ± 3.2 µM in data set [5] (setting [10]); > 414 µM in [8] (Enterovirus B, B3, Vero); > 100 µM in data set [1]; > 100 µM in data set [2]; > 100 µM in [3]; 71 ± 6.1 µM in data set [4]. In addition, in data set [6], the “cytotoxicity against the Vero cell line (in words)” value is given as “not cytotoxic”. In addition, the CC50 in data set [7] and in data set [9] was > 414 µM throughout.
